Data on one compound can be found in patent publication US20090099215A1, “Metabolic enhancing properties of norphenephrine and its salts” (priority 2007, published 2009).

The nature of the data set: oral administration of norphenephrine and its salts to users: metabolic, appetite, mental and addiction effects. The class given is in vivo, human.

For `NCC(O)c1cccc(O)c1` (centres unmarked) [norphenephrine, Norphenephrine], for the setting “after intake”, the “time until the user experiences a vastly reduced appetite for food” value is ≤ 30 min. Also, the “interaction with caffeine (metabolic enhancement)” value (co-administration of caffeine) was “synergy between caffeine and norphenephrine is observed”. In addition, the “addictive / habituating nature” value (even at high dosages, compared with amphetamines) is given as “not addictive, or even habituating”. Besides, where the note is “in vivo”, the “adipose tissue loss versus lean body mass” value is “specifically enhance the loss of adipose tissue while preserving lean body mass”; the “focus, acuity and psychological outlook” value was “sustained and noticeable effect”; the overall metabolic rate entry is “increase a user's overall metabolic rate”. In addition, the insulin sensitivity entry (muscle tissue apart from adipose tissue) is “specifically increase insulin sensitivity in muscle tissue”. Also, the fat mass result (no changes to the user's current diet and exercise regimen) was “noticeable and quantifiable decrease in fat mass”.
